Assay results from US10077264B2, “Derivatives and methods of treating hepatitis B infections” (Novira Therapeutics, Inc., priority 2014, dated 2018).

system: HBV replication in HepG2.2.15 cells; assay: HBV replication inhibition assay (BDNA assay); type: cell-based; details: HepG2.2.15 cells, 6 days, encapsidated HBV DNA in supernatant; read-out: Activity in BDNA-assay (EC50)
From the text: HBV replication inhibition by the compounds of this invention could be determined in cells infected or transfected with HBV, or cells with stably integrated HBV, such as HepG2.2.15 cells (Sells et al. 1987). In this example, HepG2.2.15 cells were maintained in cell culture medium containing 10% fetal bovine serum (FBS), Geneticin, L-glutamine, penicillin and streptomycin. HepG2.2.15 cells could be seeded in 96-well plates at a density of 40,000 cells/well and be treated with serially diluted compounds at a final DMSO concentration of 0.5% either alone or in combination by adding drugs in a checker box format. Cells were incubated with compounds for three days, after which medium was removed and fresh medium containing compounds was added to cells and incubated for another three days. At day 6, supernatant was removed and treated with DNase at 37° C. for 60 minutes, followed by enzyme inactivation at 75° C. for 15 minutes. Encapsidated HBV DNA was released from the virions and covalently linked HBV polymerase by incubating in lysis buffer (Affymetrix QS0010) containing […] proteinase K at 50° C. for 40 minutes. HBV DNA was denatured by addition of 0.2 M NaOH and detected using a branched DNA (BDNA) QuantiGene assay kit according to manufacturer recommendation (Affymetrix). HBV DNA levels could also be quantified using qPCR, based on amplification of encapsidated HBV DNA extraction with QuickExtraction Solution (Epicentre Biotechnologies) and amplification of HBV DNA using HBV specific PCR probes that can hybridize to HBV DNA and a fluorescently labeled probe for quantitation. In addition, cell viability of HepG2.2.15 cells incubated with test compounds alone or in combination was determined by using CellTitre-Glo reagent according to the manufacturer protocol (Promega). The mean background signal from wells containing only culture medium was subtracted from all other samples, and percent inhibition at each compound concentration was calculated by normalizing to signals from HepG2.2.15 cells treated with 0.5% DMSO using equation E1. % inhibition=(DMSOave−Xi)/DMSOave×100% E1: • where DMSOave is the mean signal calculated from the wells that were treated with DMSO control (0% inhibition control) and Xi is the signal measured from the individual wells. EC50 values, effective concentrations that achieved 50% inhibitory effect, were determined by non-linear fitting using Graphpad Prism software (San Diego, Calif.) and equation E2 Y=Ymin+(Ymax−Ymin)/(1+10(Log EC50−X)×HillSlope) E2: • where Y represents percent inhibition values and X represents the logarithm of compound concentrations.
Selected compounds of the invention were assayed in the HBV replication assay (BDNA assay), as described above and a representative group of these active compounds is shown in Table 3.

Row | Compound | EC50
1 | CC1Cc2[nH]nc(-c3cscn3)c2CN1C(=O)Nc1ccc(F)c(Cl)c1 (centres unmarked) [917 E2] | 10 to 100 nM
2 | CC1c2c(-c3ccccc3)n[nH]c2CCN1C(=O)Nc1cccc(Cl)c1 (single isomer, unassigned) [318 (E2), N-(3-chlorophenyl)-4-methyl-3-phenyl-1,4,6,7-tetrahydropyrazolo[4,3-c]pyridine-5-carboxamide] | 100 to 500 nM
3 | CC1Cc2[nH]nc(-c3cscn3)c2CN1C(=O)Nc1cccc(Br)c1 (centres unmarked) [918 E2] | 10 to 100 nM
4 | CC1Cc2[nH]nc(-c3ccccc3)c2CN1C(=O)Nc1cccc(Cl)c1 (single isomer, unassigned) [317 (E2), N-(3-chlorophenyl)-6-methyl-3-phenyl-1,4,6,7-tetrahydropyrazolo[4,3-c]pyridine-5-carboxamide] | 100 to 500 nM
5 | CC1Cc2[nH]nc(-c3cscn3)c2CN1C(=O)Nc1ccc(F)c(Br)c1 (centres unmarked) [919 E2] | 10 to 100 nM
6 | CC1Cc2[nH]nc(-c3cscn3)c2CN1C(=O)Nc1ccnc(Br)c1F (centres unmarked) [921 E2] | 10 to 100 nM
7 | CC1Cc2[nH]nc(-c3cscn3)c2CN1C(=O)Nc1ccc(F)c(C#N)c1 (centres unmarked) [922 E2] | 10 to 100 nM

same assay, conditions: Hepatitis B virus, 144 h; HepG2.2.15 cells, 10 μM, 6 days, encapsidated HBV DNA in supernatant; read-out: Activity in BDNA-assay (activity at 10 μM)

Row | Compound | inhibition at 10 µM
8 | O=C(NCc1ccccc1)N1CCc2[nH]nc(-c3ccccc3)c2C1 [Compound 017, N-benzyl-3-phenyl-1,4,6,7-tetrahydropyrazolo[4,3-c]pyridine-5-carboxamide] | > 50%
9 | O=C(COc1cccc(Cl)c1)N1CCc2[nH]nc(-c3ccccc3)c2C1 [Compound 149] | > 50%
10 | O=C(COc1ccccc1F)N1CCc2[nH]nc(-c3ccccc3)c2C1 [Compound 142] | > 50%
11 | O=C(COc1cccc(F)c1)N1CCc2[nH]nc(-c3ccccc3)c2C1 [Compound 143] | > 50%
12 | O=C(COc1ccc(C(F)(F)F)cc1)N1CCc2[nH]nc(-c3ccccc3)c2C1 [Compound 165] | > 50%
13 | O=C(C1COc2ccccc2O1)N1CCc2[nH]nc(-c3ccccc3)c2C1 (centres unmarked) [Compound 171] | > 50%
14 | Cc1cccc(OCC(=O)N2CCc3[nH]nc(-c4ccccc4)c3C2)c1 [Compound 145] | > 50%
15 | N#Cc1ccc(OCC(=O)N2CCc3[nH]nc(-c4ccccc4)c3C2)cc1 [Compound 156] | > 50%
16 | O=C(COc1ccccc1C(F)(F)F)N1CCc2[nH]nc(-c3ccccc3)c2C1 [Compound 163] | > 50%
17 | O=C(COc1cccc(C(F)(F)F)c1)N1CCc2[nH]nc(-c3ccccc3)c2C1 [Compound 164] | > 50%
18 | N#Cc1ccc(Cl)cc1NC(=O)N1CCc2[nH]nc(-c3ccccc3)c2C1 [Compound 201] | > 50%
19 | O=C(Nc1cccc(Cl)c1)N1CCc2[nH]nc(-c3cccc(F)c3)c2C1 [Compound 277, N-(3-chlorophenyl)-3-(3-fluorophenyl)-1,4,6,7-tetrahydropyrazolo[4,3-c]pyridine-5-carboxamide] | > 50%
20 | O=C(OCc1ccccc1)N1CCc2[nH]nc(-c3ccccc3)c2C1 [Compound 024, benzyl 3-phenyl-1,4,6,7-tetrahydropyrazolo[4,3-c]pyridine-5-carboxylate] | > 50%
21 | O=C(COc1ccc(F)cc1)N1CCc2[nH]nc(-c3ccccc3)c2C1 [Compound 144] | > 50%
22 | O=C(CCc1ccccc1)N1CCc2[nH]nc(-c3ccccc3)c2C1 [Compound 027, 3-phenyl-1-(3-phenyl-1,4,6,7-tetrahydropyrazolo[4,3-c]pyridin-5-yl)propan-1-one] | > 50%
23 | O=C(COc1ccccc1Cl)N1CCc2[nH]nc(-c3ccccc3)c2C1 [Compound 148] | > 50%
24 | O=C(COc1cncnc1)N1CCc2[nH]nc(-c3ccccc3)c2C1 [Compound 001] | > 50%

same assay, conditions: Hepatitis B virus, HepG2.2.15, 144 h, HepG2.2.15 cells, 6 days, encapsidated HBV DNA in supernatant; read-out: Activity in BDNA-assay (EC50)

Row | Compound | EC50
25 | O=C(Nc1cc(Cl)ccc1Cl)N1CCc2[nH]nc(-c3ccccc3)c2C1 [Compound 191] | 500 to 1000 nM
26 | CC1Cc2[nH]nc(-c3cscn3)c2CN1C(=O)Nc1ccc(F)c(Cl)c1 (centres unmarked) [917 E1, N-(3-chloro-4-fluoro-phenyl)-6-methyl-3-thiazol-4-yl-1,4,6,7-tetrahydropyrazolo[4,3-c]pyridine-5-carboxamide] | 10 to 100 nM
27 | O=C(Nc1cccc(Cl)c1)N1CCc2ncn(-c3ccccc3)c2C1 [Compound 542, N-(3-chlorophenyl)-3-phenyl-6,7-dihydro-4H-imidazo[4,5-c]pyridine-5-carboxamide] | 500 to 1000 nM
28 | O=C(Nc1cccc(Cl)c1)N1CCc2[nH]nc(-c3ccc(F)nc3)c2C1 [Compound 473, N-(3-chlorophenyl)-3-(6-fluoro-3-pyridyl)-1,4,6,7-tetrahydropyrazolo[4,3-c]pyridine-5-carboxamide] | 500 to 1000 nM
29 | Cn1nccc1-c1n[nH]c2c1CN(C(=O)Nc1cccc(Cl)c1)CC2 [Compound 496] | 100 to 500 nM
30 | O=C(Nc1cccc(Cl)c1)N1CCc2[nH]nc(-c3cccnn3)c2C1 [Compound 290] | 10 to 100 nM
31 | O=C(Nc1cccc(Cl)c1)N1CCc2[nH]nc(-c3ccc(F)cc3)c2C1 [Compound 278, N-(3-chlorophenyl)-3-(4-fluorophenyl)-1,4,6,7-tetrahydropyrazolo[4,3-c]pyridine-5-carboxamide] | 100 to 500 nM
32 | O=C(Nc1cccc(Cl)c1)N1CCc2[nH]nc(-c3ccn[nH]3)c2C1 [Compound 497] | 100 to 500 nM
33 | O=C(Nc1cccc(Cl)c1)N1CCc2[nH]nc(-c3ccccc3)c2C1 [Compound 112] | 10 to 100 nM
34 | O=C(Nc1cccc(Cl)c1)N1CCc2[nH]nc(-c3ccncc3)c2C1 [Compound 287] | 100 to 500 nM
35 | CC1Cc2[nH]nc(-c3cscn3)c2CN1C(=O)Nc1ccnc(Br)c1F (centres unmarked) [921 E1] | 10 to 100 nM
36 | O=C(Nc1cccc(Cl)c1)N1CCc2[nH]nc(-c3ncccn3)c2C1 [Compound 289, N-(3-chlorophenyl)-3-pyrimidin-2-yl-1,4,6,7-tetrahydropyrazolo[4,3-c]pyridine-5-carboxamide] | 10 to 100 nM
37 | Cc1c(Cl)cccc1NC(=O)N1CCc2[nH]nc(-c3ccccc3)c2C1 [Compound 192] | 100 to 500 nM
38 | CC1Cc2[nH]nc(-c3cscn3)c2CN1C(=O)Nc1ccc(F)c(C#N)c1 (centres unmarked) [922 E1] | 10 to 100 nM
39 | O=C(Nc1cccc(Cl)c1)N1CCc2[nH]nc(-c3ccccc3F)c2C1 [Compound 276, N-(3-chlorophenyl)-3-(2-fluorophenyl)-1,4,6,7-tetrahydropyrazolo[4,3-c]pyridine-5-carboxamide] | 100 to 500 nM
40 | Cc1cccc(NC(=O)N2Cc3c(-c4cscn4)n[nH]c3CC2C)c1 (centres unmarked) [923 E1] | 10 to 100 nM
41 | CC1Cc2[nH]nc(-c3cscn3)c2CN1C(=O)Nc1cccc(Br)c1 (centres unmarked) [918 E1] | 10 to 100 nM
42 | CC1Cc2[nH]nc(-c3cscn3)c2CN1C(=O)Nc1ccc(F)c(Br)c1 (centres unmarked) [919 E1] | 10 to 100 nM
43 | O=C(Nc1ccc(F)c(Cl)c1F)N1CCc2[nH]nc(-c3ccccc3)c2C1 [Compound 205] | 100 to 500 nM
44 | O=C(Nc1ccc(F)c(Cl)c1)N1CCc2[nH]nc(-c3ccccc3)c2C1 [Compound 114] | 10 to 100 nM
45 | CC1c2c(-c3ccccc3)n[nH]c2CCN1C(=O)Nc1cccc(Cl)c1 (single isomer, unassigned) [318 (E1), N-(3-chlorophenyl)-4-methyl-3-phenyl-1,4,6,7-tetrahydropyrazolo[4,3-c]pyridine-5-carboxamide] | 100 to 500 nM
46 | Cc1cc(NC(=O)N2Cc3c(-c4cscn4)n[nH]c3CC2C)ccc1F (centres unmarked) [924 E1] | 10 to 100 nM
47 | Cn1ccc(-c2n[nH]c3c2CN(C(=O)Nc2cccc(Cl)c2)CC3)n1 [Compound 555] | 100 to 500 nM
48 | O=C(Nc1cccc(Cl)c1)N1CCc2c(ncn2-c2ccccc2)C1 [Compound 583, N-(3-chlorophenyl)-1-phenyl-6,7-dihydro-4H-imidazo[4,5-c]pyridine-5-carboxamide] | 1500 to 5000 nM

same assay, conditions: Hepatitis B virus, HepG2.2.15, 144 h, read-out: Activity in BDNA-assay (EC50)

Row | Compound | EC50
49 | O=C(Nc1ccccc1)N1CCc2[nH]nc(-c3ccccc3)c2C1 [Compound 022, N,3-diphenyl-1,4,6,7-tetrahydropyrazolo[4,3-c]pyridine-5-carboxamide] | 100 to 500 nM

same assay, conditions: Hepatitis B virus, HepG2.2.15, 144 h, read-out: Activity in BDNA-assay (activity at 10 μM)

Row | Compound | inhibition at 10 µM
50 | O=C(Oc1ccccc1)N1CCc2[nH]nc(-c3ccccc3)c2C1 [Compound 021, phenyl3-phenyl-1,4,6,7-tetrahydropyrazolo[4,3-c]pyridine-5-carboxylate] | > 50%
